Results on 4 compounds are retold here after US20040142961A1, “Utilization of substituted imidazo[1,2-a]-pyridine compounds in pharmaceutical formulations” (priority 2001, published 2004).

In this experiment the target is T1, nitric oxide synthase (Rattus norvegicus, UniProt P29476).
T1 construct: the supernatant was then decanted and frozen in portions; from tissue; host or cells: rat cerebellum, homogenate supernatant after 20,000 g
As to the kind of experiment: HTS NO synthase assay. The following applies: 10 μM test compound; enzyme from rat cerebellum; [3H]arginine substrate; read-out: Inhibition of nitric oxide synthase (10 μM) in per cent. It is filed as biochemical. As for the experimental part:
This assay allows the determination of the percentage inhibition of NO synthase by a compound of formula I employed according to the invention by measuring the NO synthase activity under the action of the compound. In this procedure, NO synthase is mixed together with radioactively labelled arginine and the particular compound of formula I under suitable conditions. After interruption of the NO formation reaction at a given point in time, the amount of unreacted arginine is determined directly or indirectly. Comparison of this amount with the amount of arginine remaining from the mixture of NO synthase and arginine free of the test compound of formula I and under otherwise identical conditions gives the percentage inhibition of NO synthase by the test compound. This assay can be carried out as follows:
(a) incubation of NO synthase with labelled arginine as the substrate in a reaction vessel,
(b) separation of the labelled arginine from labelled citrulline formed as the product of the enzymatic reaction at a point in time at which the concentration of citrulline is increasing, and
(c) measurement of the amount of arginine separated in each case.
The separation is carried out through a filter plate membrane.
In this HTS NO synthase assay, radioactive arginine is used as the substrate. The assay volume can be chosen in the range between 25 μl and 250 μl, depending on the nature of the microtiter plate (MTP). Cofactors and coenzymes are added, depending on the enzyme source used. The incubation of the batches in this microtiter plate (assay MTP) according to step (a) is carried out at room temperature for between 5 and 60 minutes, depending on the enzyme activity (units) used. At the end of the incubation (step (a)), the plate is placed in a cell harvester equipped with an MTP which has a cation exchanger membrane as the filter base (filter MTP). All the batches of the assay MTP are transferred into this filter MTP and filtered with suction over a cation exchanger filter plate, i.e., a filter paper loaded with phosphate groups. The filter MTP is then washed with buffer or water. Using this procedure, the arginine substrate which remains is bound to the cation exchanger, while the radioactive citrulline formed enzymatically is washed out quantitatively. After drying of the filter MTP and addition of scintillation liquid, the bound arginine can be counted on a scintillation counter. An NO synthase reaction which has not been inhibited is reflected in a low radioactivity. An inhibited enzyme reaction means that the radioactive arginine has not been reacted. That is to say, a high radioactivity is found on the filter. […]
The plate was then dried for 1 hour at 60° C. in a drying cabinet. […] After a waiting time of 1 hour, the plate was measured on a β-counter.
On to `Cc1ccn2cc(C(C)(C)C)nc2c1` [Example 4, 2-tert-Butyl-7-methyl-imidazo[1,2-a]pyridine], for which the inhibition at 10 µM came to 89%.

Consider `Cc1ccn2cc(C)nc2c1` [Example 2, 2,7-Dimethyl-imidazo[1,2-a]pyridine], for which the inhibition at 10 µM amounted to 68%.

With `COc1ccc(-c2cn3ccc(C)cc3n2)cc1` [Example 1, 2-(4-Methoxy-phenyl)-7-methyl-imidazo[1,2-a]pyridine], the inhibition at 10 µM came out at 39%.

As for `Cc1ccn2ccnc2c1` [Example 3, 7-Methyl-imidazo[1,2-a]pyridine], the inhibition at 10 µM amounted to 53%.
